Measured values from patent publication US20250289780A1, “N,N'-DIPHENYL-4,4'-BIPHENYLDICARBOXAMIDE ANALOGS AND THEIR USE IN CANCER TREATMENT” (Board of Regents, The University of Texas System, priority 2024, published 2025).
“Also recorded” adds a separate entry of the source.

Key:
Bcl-2 = Bcl-2 (Homo sapiens, UniProt P10415); assay: Fluorescence polarization (FP) binding assay, Bcl-2
Protocol: (§1) FIGS. 3A-3B show binding affinity to Bcl-xL, Bcl-2 and Mcl-1 determined by FP assay. FIG. 3A: compounds 1-9 mimicking BH3 peptides of proapoptotic proteins (scaffold I). FIG. 3B: Bim-mimicking compounds 10-16 derived from scaffolds II-VIII.
(§2) Their binding affinities on Bcl-xL, Bcl-2, and Mcl-1 were determined by fluorescence polarization (FP) assays (FIG. 3A). […] The role of carboxylic acids at both ends of compound 1 was also studied.

Bcl-xL = Bcl-xL (Homo sapiens, UniProt Q07817); assay: Fluorescence polarization (FP) binding assay, Bcl-xL
Protocol: as §1, §2

[1] = biological target: T1, interaction of Bak with Mcl-1 (Homo sapiens, UniProt Q07820); assay: Co-immunoprecipitation in PC3 cells, Bak/Mcl-1; format: cell-based; conditions: 10 μM, 24 h, immunoprecipitation and western blotting
T1 construct: endogenous in cells; host or cells: PC3 cells
Protocol: (§3) FIGS. 5A-5F show cellular activity of mimetics 1, 14, and 23. FIG. 5A: effect of mimetics on the interaction between Bak and antiapoptotic proteins. PC3 cells were incubated in the presence or absence of mimetics (10 μM) for 24 h and cell lysates were analyzed by immunoprecipitation followed by western blotting. FIG. 5B: mitochondrial membrane depolarization by mimetics. PC3 cells that were treated with mimetics, ABT737 or MIM1 were stained with JC-1 dye and analyzed for change in red to green fluorescence intensity ratio of JC-1 dye. FIG. 5C: activation of caspase-3/-9 by mimetics. PC3 cells were treated with different concentrations of mimetics, ABT737, and MIM1 for 24 h and activities of caspase-3/-9 were measured using caspase-specific colorimetric assay kits. FIG. 5D: downregulation of Mcl-1 by siRNA. PC3 cells were transfected with Mcl-1 siRNA (30 μmol) or control siRNA (30 μmol) for 24 h and cell lysates were analyzed by western blotting. FIG. 5E: effect of Mcl-1 knockdown on mimetics-induced caspase activation. Same as for C except for the use of Mcl-1 knockdown PC3 cells. FIG. 5F: effect of Mcl-1 knockdown on mimetics-induced cell growth. PC3 cells were treated with mimetics (10 μM) or MIM1 (10 μM) for 24 h and cell viability was determined using MTT assay. […]

LNCaP cells = assay: MTT anti-proliferative assay, LNCaP; format: cell-based; conditions: Homo sapiens, read-out: IC50, cell growth
Protocol: (§4) These compounds were examined for their capabilities of inducing apoptosis. When effectors are released from anti-apoptotic proteins, they form pores on the outer mitochondrial membrane, leading to mitochondrial outer membrane permeabilization (MOMP) and cytochrome c release which promote caspase activation. The formation of pores on the outer mitochondrial membrane and the resulting change in mitochondrial membrane potential were determined by JC-1 staining. […] The anti-proliferative activity was also evaluated using MTT assay in prostate cancer cells.

DU145 cells = assay: MTT anti-proliferative assay, DU145; format: cell-based; conditions: Homo sapiens, DU-145, read-out: IC50, cell growth
Protocol: as §4

PC3 cells [2] = assay: MTT anti-proliferative assay, PC3; format: cell-based; conditions: for cell growth inhibition: 10 μM, 24 h, MTT
Protocol: (§5) FIGS. 5A-5F show cellular activity of mimetics 1, 14, and 23. FIG. 5A: effect of mimetics on the interaction between Bak and antiapoptotic proteins. PC3 cells were incubated in the presence or absence of mimetics (10 μM) for 24 h and cell lysates were analyzed by immunoprecipitation followed by western blotting. FIG. 5B: mitochondrial membrane depolarization by mimetics. PC3 cells that were treated with mimetics, ABT737 or MIM1 were stained with JC-1 dye and analyzed for change in red to green fluorescence intensity ratio of JC-1 dye. FIG. 5C: activation of caspase-3/-9 by mimetics. PC3 cells were treated with different concentrations of mimetics, ABT737, and MIM1 for 24 h and activities of caspase-3/-9 were measured using caspase-specific colorimetric assay kits. FIG. 5D: downregulation of Mcl-1 by siRNA. PC3 cells were transfected with Mcl-1 siRNA (30 μmol) or control siRNA (30 μmol) for 24 h and cell lysates were analyzed by western blotting. FIG. 5E: effect of Mcl-1 knockdown on mimetics-induced caspase activation. Same as for C except for the use of Mcl-1 knockdown PC3 cells. FIG. 5F: effect of Mcl-1 knockdown on mimetics-induced cell growth. PC3 cells were treated with mimetics (10 μM) or MIM1 (10 μM) for 24 h and cell viability was determined using MTT assay.
as §4
(§6) Its specificity to Mcl-1 on prostate cancer cells with Mcl-1 silenced by siRNA (FIG. 5D) was further investigated. Compound 23 induced up to 3-fold increase in caspase-3/-9 activity in untransfected and control-transfected PC3 cells. Knockdown of Mcl-1, however, decreased the M161-induced caspase activity to the basal level (FIG. 5E). In MTT assay, 23 inhibited cell growth by 64% and 62% in untransfected and control-transfected PC3 cells, respectively.

Mcl-1 = Mcl-1 (Homo sapiens, UniProt Q07820); assay: Fluorescence polarization (FP) binding assay, Mcl-1
Protocol: as §1, §2

[3] = biological target: T2, interaction of Bak with Bcl-2 (Homo sapiens, UniProt P10415); assay: Co-immunoprecipitation in PC3 cells, Bak/Bcl-2; format: cell-based; conditions: 10 μM, 24 h, immunoprecipitation and western blotting
T2 construct: endogenous in cells; host or cells: PC3 cells
Protocol: as §3

PC3 cells [4] = assay: Mitochondrial membrane depolarization, JC-1 staining; format: cell-based
Protocol: FIGS. 5A-5F show cellular activity of mimetics 1, 14, and 23. FIG. 5A: effect of mimetics on the interaction between Bak and antiapoptotic proteins. PC3 cells were incubated in the presence or absence of mimetics (10 μM) for 24 h and cell lysates were analyzed by immunoprecipitation followed by western blotting. FIG. 5B: mitochondrial membrane depolarization by mimetics. PC3 cells that were treated with mimetics, ABT737 or MIM1 were stained with JC-1 dye and analyzed for change in red to green fluorescence intensity ratio of JC-1 dye. FIG. 5C: activation of caspase-3/-9 by mimetics. PC3 cells were treated with different concentrations of mimetics, ABT737, and MIM1 for 24 h and activities of caspase-3/-9 were measured using caspase-specific colorimetric assay kits. FIG. 5D: downregulation of Mcl-1 by siRNA. PC3 cells were transfected with Mcl-1 siRNA (30 μmol) or control siRNA (30 μmol) for 24 h and cell lysates were analyzed by western blotting. […] PC3 cells were treated with mimetics (10 μM) or MIM1 (10 μM) for 24 h and cell viability was determined using MTT assay.
These compounds were examined for their capabilities of inducing apoptosis. […] The formation of pores on the outer mitochondrial membrane and the resulting change in mitochondrial membrane potential were determined by JC-1 staining. […] The anti-proliferative activity was also evaluated using MTT assay in prostate cancer cells.

caspase-3/-9 = assay: Caspase-3/-9 colorimetric activity assay in PC3 cells; format: cell-based; conditions: for caspase-9/-3 activity (in words): PC3 cells, different concentrations, 24 h
Protocol: as §5, §4, §6

[5] = biological target: T3, interaction of Bak with Bcl-xL (Homo sapiens, UniProt Q07817); assay: Co-immunoprecipitation in PC3 cells, Bak/Bcl-xL; format: cell-based; conditions: 10 μM, 24 h, immunoprecipitation and western blotting
T3 construct: endogenous in cells; host or cells: PC3 cells
Protocol: as §3

Sequence of Bcl-xL (Q07817 whole entry): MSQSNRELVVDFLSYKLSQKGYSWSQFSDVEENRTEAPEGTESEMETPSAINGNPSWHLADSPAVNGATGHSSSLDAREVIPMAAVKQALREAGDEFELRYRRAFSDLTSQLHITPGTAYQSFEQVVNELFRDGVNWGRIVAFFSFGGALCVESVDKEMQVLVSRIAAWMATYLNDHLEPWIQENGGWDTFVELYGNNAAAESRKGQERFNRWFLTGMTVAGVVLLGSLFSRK
Sequence of Mcl-1 (Q07820 whole entry): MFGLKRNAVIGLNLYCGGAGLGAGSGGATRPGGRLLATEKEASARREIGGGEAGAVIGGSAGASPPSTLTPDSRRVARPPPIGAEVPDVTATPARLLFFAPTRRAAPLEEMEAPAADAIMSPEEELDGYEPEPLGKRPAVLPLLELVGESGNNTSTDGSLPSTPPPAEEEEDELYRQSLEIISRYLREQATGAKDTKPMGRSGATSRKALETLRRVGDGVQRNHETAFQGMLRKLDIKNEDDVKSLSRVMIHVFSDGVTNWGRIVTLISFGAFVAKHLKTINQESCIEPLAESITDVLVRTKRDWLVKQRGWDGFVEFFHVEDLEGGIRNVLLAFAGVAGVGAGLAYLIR
Sequence of Bcl-2 (P10415 whole entry): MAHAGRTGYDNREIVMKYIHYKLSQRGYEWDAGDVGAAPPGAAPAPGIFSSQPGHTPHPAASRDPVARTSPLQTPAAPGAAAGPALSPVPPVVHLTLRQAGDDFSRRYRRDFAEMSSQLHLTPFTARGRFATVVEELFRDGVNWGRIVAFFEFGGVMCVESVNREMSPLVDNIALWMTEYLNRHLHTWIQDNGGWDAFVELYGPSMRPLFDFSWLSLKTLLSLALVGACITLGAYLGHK
T1 sequence (Q07820 whole entry): as the sequence (Q07820 whole entry) above
T3 sequence (Q07817 whole entry): as the sequence (Q07817 whole entry) above
T2 sequence (P10415 whole entry): as the sequence (P10415 whole entry) above

Row | Structure (SMILES) | binding affinity to Bcl-2 (in words) (Bcl-2) | binding affinity to Bcl-xL (in words) (Bcl-xL) | binding affinity to Mcl-1 (in words) (Mcl-1) | also measured
1 | CCC(C)COc1cc(-c2ccc(C(=O)Nc3ccc(C(=O)O)c(OC(C)CC)c3)c(OCCC(C)C)c2)ccc1C(=O)Nc1ccc(C(=O)O)c(OCc2ccccc2)c1 (stereo not shown) [Compound 11] | selectivity for Bcl-xL and Bcl-2 | selectivity for Bcl-xL and Bcl-2 |  | 
2 | CCC(C)COc1cc(-c2ccc(C(=O)Nc3ccc(C(=O)O)cc3OC(C)CC)c(OCCC(C)C)c2)ccc1C(=O)Nc1ccc(C(=O)O)cc1OCc1ccccc1 (stereo not shown) [Compound 1, 3-(Benzyloxy)-4-(4′-((2-(sec-butoxy)-4-carboxyphenyl)carbamoyl)-3′-(isopentyloxy)-3-(2-methylbutoxy)-[1,1′-biphenyl]-4-carboxamido)benzoic acid] |  |  |  | IC50 (Bcl-2): 140 to 230 nM; disruption of the interaction of Bak with Mcl-1 [1]: disrupted the interaction; IC50 (LNCaP cells): 2870 to 9670 nM; IC50 (DU145 cells): 2870 to 9670 nM; IC50 (Bcl-xL): 140 to 230 nM; IC50 (PC3 cells [2]; Homo sapiens, PC-3, PC3, MTT assay, read-out: IC50, cell growth): 2870 to 9670 nM; IC50 (Mcl-1): 140 to 230 nM; disruption of the interaction of Bak with Bcl-2 [3]: disrupted the interaction; red to green fluorescence intensity ratio of JC-1 dye (PC3 cells [4]): significantly reduced; caspase-9/-3 activity (in words) (caspase-3/-9): induced caspase-9/-3 activity in a dose-dependent manner; disruption of the interaction of Bak with Bcl-xL [5]: disrupted the interaction
3 | CCC(C)COc1cc(-c2ccc(C(=O)Nc3ccc(C(=O)O)cc3OC(C)CC)c(OC(C)CC)c2)ccc1C(=O)Nc1ccc(C(=O)O)cc1OCc1ccccc1 (stereo not shown) [Compound 22] |  | selective affinity only to Bcl-xL |  | IC50 (Bcl-xL): 650 nM
4 | CCC(C)Oc1cc(C(=O)O)ccc1NC(=O)c1ccc(-c2ccc(C(=O)Nc3ccc(C(=O)O)cc3OC(C)CC)c(OC(C)C)c2)cc1OCCC(C)C (stereo not shown) [Compound 23] |  |  | selectively inhibited only Mcl-1 | disruption of the interaction of Bak with Mcl-1 [1]: selectively inhibited Mcl-1 over Bcl-xL and Bcl-2; cell growth inhibition (PC3 cells [2]; Mcl-1 knockdown PC3 cells): 18%; cell growth inhibition (PC3 cells [2]; control-transfected PC3 cells): 62%; cell growth inhibition (PC3 cells [2]; untransfected PC3 cells): 64%; IC50 (Mcl-1): 160 nM; red to green fluorescence intensity ratio of JC-1 dye (PC3 cells [4]): significantly reduced; induced caspase activity (in words) (caspase-3/-9; Mcl-1 knockdown (siRNA) PC3 cells): basal level; caspase-9/-3 activity (in words) (caspase-3/-9): induced caspase-9/-3 activity in a dose-dependent manner; increase in caspase-3/-9 activity (caspase-3/-9; control-transfected PC3 cells): up to 3 fold; increase in caspase-3/-9 activity (caspase-3/-9; untransfected PC3 cells): up to 3 fold
5 | CCC(C)COc1cc(-c2ccc(C(=O)Nc3ccc(C(=O)O)cc3OC(C)C)c(OCCC(C)C)c2)ccc1C(=O)Nc1ccc(C(=O)O)cc1OC(C)CC (stereo not shown) [Compound 5] |  | negligible affinity; also recorded: not to Bcl-xL |  | 
6 | CCC(C)COc1cc(-c2ccc(C(=O)Nc3ccc(C(=O)O)cc3OC(C)CC)c(OCCC(C)C)c2)ccc1C(=O)Nc1ccccc1OCc1ccccc1 (stereo not shown) [Compound 9] | complete loss in binding affinities | complete loss in binding affinities | complete loss in binding affinities | 
7 | CCC(C)Oc1cc(C(=O)O)ccc1NC(=O)c1ccc(-c2ccc(C(=O)Nc3ccc(C(=O)O)cc3OC(C)CC)c(OC(C)CC)c2)cc1OCCC(C)C (stereo not shown) [Compound 20] |  | negligible binding | negligible binding | IC50 (Bcl-2): 340 nM
8 | CCC(C)COc1cc(-c2ccc(C(=O)Nc3ccc(C(=O)O)cc3OCC(C)C)c(OCCC(C)C)c2)ccc1C(=O)Nc1ccc(C(=O)O)cc1OCC(C)C (stereo not shown) [Compound 4] | very selective for inhibiting Bcl-2 over Bcl-xL and Mcl-1 |  |  | 
9 | CCCCCOc1cc(-c2ccc(C(=O)Nc3ccc(C(=O)O)cc3OCc3ccc(F)cc3)c(OCCC(C)C)c2)ccc1C(=O)Nc1ccc(C(=O)O)cc1OCc1ccccc1 [Compound 6] | did not bind | did not bind | did not bind | 
10 | CCCCCOc1cc(-c2ccc(C(=O)Nc3ccc(C(=O)O)cc3OC(C)CC)c(OCCC(C)C)c2)ccc1C(=O)Nc1ccc(C(=O)O)cc1OCC(C)C (stereo not shown) [Compound 2] | high affinity | low affinity | low affinity | 
11 | CCCCOc1cc(C(=O)O)ccc1NC(=O)c1ccc(-c2ccc(C(=O)Nc3ccc(C(=O)O)cc3OC(C)CC)c(OCCC(C)C)c2)cc1OCC(C)C (stereo not shown) [Compound 3] | no inhibition | no inhibition | no inhibition | 
12 | CCC(C)COc1cc(-c2ccc(C(=O)Nc3ccc(C(=O)O)cc3OC(C)CC)cc2OCCC(C)C)ccc1C(=O)Nc1ccc(C(=O)O)c(OCc2ccccc2)c1 (stereo not shown) [Compound 13] | substantially increased its affinity to Bcl-xL and Bcl-2 compared to Mcl-1 | substantially increased its affinity to Bcl-xL and Bcl-2 compared to Mcl-1 |  | 
13 | CCOc1cc(C(=O)O)ccc1NC(=O)c1ccc(-c2ccc(C(=O)Nc3ccc(C(=O)O)cc3OCC(C)C)c(OCCc3ccccc3)c2)cc1OCCC(C)C [Compound 7] | affinity only for Bcl-2 |  |  | 
14 | CCC(C)COc1cc(-c2ccc(C(=O)Nc3ccc(C(=O)O)c(OC(C)CC)c3)c(OCCC(C)C)c2)ccc1C(=O)Nc1ccc(C(=O)O)cc1OCc1ccccc1 (stereo not shown) [Compound 10] | maintaining affinity | lost affinity | maintaining affinity | 
15 | CCC(C)COc1cc(-c2ccc(C(=O)Nc3ccc(C(=O)O)cc3OC(C)CC)cc2OCCC(C)C)ccc1C(=O)Nc1ccc(C(=O)O)cc1OCc1ccccc1 (stereo not shown) [Compound 12] | significantly lost affinity | significantly lost affinity | significantly lost affinity | 
